Results from article PMC3020970, “K70Q Adds High-Level Tenofovir Resistance to “Q151M Complex” HIV Reverse Transcriptase through the Enhanced Discrimination Mechanism” (PLoS ONE, 2011).
Where two headings read alike, the source gives them in different places.

Key:
Assay type in all cases: cell-based
HIV-1 WT = assay: Single-cycle drug susceptibility assay (MAGIC-5 cells), recombinant WT clone; details: Human immunodeficiency virus 1, Table S2
Description: (§1) The NL4-3-based molecular clone was constructed by replacing the pol-coding region with the HIV-1 BH10 strain. […] Each molecular clone was transfected into COS-7 cells. Cells were grown for 48 h, and culture supernatants were harvested and stored at −80°C until use.
(§2) Susceptibilities to various RT inhibitors were determined using the MAGIC-5 cells which are HeLa cells stably transfected with a β-galactosidase gene under the control of an HIV long terminal repeat promoter, and with vectors that express the CD4 receptor and the CCR5 co-receptor under the control of the CMV promoter as described previously. Briefly, MAGIC-5 cells were infected with diluted virus stock (100 blue forming units) in the presence of increasing concentrations of RT inhibitors, cultured for 48 h, fixed, and stained with X-Gal (5-bromo-4-chloro-3-indolyl-β-D-galacto-pyranoside). The stained cells were counted under a light microscope.

HIV-1 Q151Mc/K70N = assay: Single-cycle drug susceptibility assay (MAGIC-5 cells)
Description: as §1, §2

HIV-1 Q151Mc/K70G = assay: as above
Description: as §1, §2

HIV-1 K70Q = assay: as above; details: Human immunodeficiency virus 1, MAGIC-5; K70Q
Description: as §1, §2

HIV-1 K70T = assay: as above
Description: as §1, §2

HIV-1 Q151Mc/K70Q = assay: as above
Description: as §1, §2

HIV-1 Q151Mc/K70T = assay: as above
Description: as §1, §2

HIV-1 K70N = assay: as above
Description: as §1, §2

HIV-1 K70G = assay: as above
Description: as §1, §2

HIV-1 Q151Mc = assay: as above; details: Human immunodeficiency virus 1, MAGIC-5
Description: as §1, §2

HIV-1 K70R = assay: as above
Description: as §1, §2

HIV-1 Q151Mc/K70E = assay: as above
Description: as §1, §2

HIV-1 Q151Mc/K70R = assay: as above
Description: as §1, §2

HIV-1 K70E = assay: as above
Description: as §1, §2

HIV-1 NL4-3 strain (WT) = assay: microbe, parasite or virus in culture
Description: as §2

[1] = test system: HIV-1 clinical isolate 1 (Q151Mc-containing); assay: Single-cycle drug susceptibility assay (MAGIC-5 cells), clinical isolate 1; details: Human immunodeficiency virus 1; clinical isolate 1, MAGIC-5 cells
Description: (§3) HIV was isolated from fresh plasma immediately after collection of clinical samples from study participants at the outpatient clinic of the AIDS Clinical Center (ACC), International Medical Center of Japan. The Institutional Review Board approved this study (IMCJ-H13-80) and a written consent was obtained from all participants.
as §2

[2] = test system: HIV-1 clinical isolate 2 (Q151Mc + K70Q); assay: Single-cycle drug susceptibility assay (MAGIC-5 cells), clinical isolate 2; details: Human immunodeficiency virus 1; clinical isolate 2, MAGIC-5 cells
Description: as §3, §2

[3] = Human immunodeficiency virus 1, NL43, WT, MAGIC-5 cells, Table S1, read-out: EC50
[4] = Human immunodeficiency virus 1, NL43, MAGIC-5

Nc1ccn([C@@H]2CS[C@H](CO)O2)c(=O)n1 [3TC, lamivudine]
EC50 (HIV-1 WT): 1.4 ± 0.16 µM
EC50 (HIV-1 Q151Mc/K70N; Human immunodeficiency virus 1, MAGIC-5, Q151Mc/K70N): 15 ± 1.7 µM
Fold increase in EC50 compared to HIV-1 Q151Mc (HIV-1 Q151Mc/K70N; Q151Mc/K70N vs Q151Mc): (0.5) fold
EC50 (HIV-1 Q151Mc/K70G; Human immunodeficiency virus 1, MAGIC-5, Q151Mc/K70G): 46 ± 2.5 µM
Fold increase in EC50 compared to HIV-1 Q151Mc (HIV-1 Q151Mc/K70G; Q151Mc/K70G vs Q151Mc): (1.6) fold
EC50 (HIV-1 K70Q): 4.6 ± 0.53 µM
EC50 (HIV-1 K70T; Human immunodeficiency virus 1, MAGIC-5, K70T): 4.3 ± 0.29 µM
Fold increase in EC50 compared to HIV-1 WT (HIV-1 K70T; K70T vs WT): (3.1) fold
EC50 (HIV-1 Q151Mc/K70Q; Human immunodeficiency virus 1, MAGIC-5, Q151Mc/K70Q): 81 ± 0.08 µM
Fold increase in EC50 compared to HIV-1 Q151Mc (HIV-1 Q151Mc/K70Q; Q151Mc/K70Q vs Q151Mc): (2.8) fold
EC50 (HIV-1 Q151Mc/K70T; Human immunodeficiency virus 1, MAGIC-5, Q151Mc/K70T): 12 ± 2.5 µM
Fold increase in EC50 compared to HIV-1 Q151Mc (HIV-1 Q151Mc/K70T; Q151Mc/K70T vs Q151Mc): (0.4) fold
EC50 (HIV-1 K70N; Human immunodeficiency virus 1, MAGIC-5, K70N): 2.2 ± 0.25 µM
Fold increase in EC50 compared to HIV-1 WT (HIV-1 K70N; K70N vs WT): (1.6) fold
EC50 (HIV-1 K70G; Human immunodeficiency virus 1, MAGIC-5, K70G): 26 ± 0.58 µM
Fold increase in EC50 compared to HIV-1 WT (HIV-1 K70G; K70G vs WT): (19) fold
EC50 (HIV-1 Q151Mc): 29 ± 3.2 µM
EC50 (HIV-1 K70R; Human immunodeficiency virus 1, MAGIC-5, K70R): 2.5 ± 0.46 µM
Fold increase in EC50 compared to HIV-1 WT (HIV-1 K70R; K70R vs WT): (1.8) fold
EC50 (HIV-1 Q151Mc/K70E; Human immunodeficiency virus 1, MAGIC-5, Q151Mc/K70E): 11 ± 1.4 µM
Fold increase in EC50 compared to HIV-1 Q151Mc (HIV-1 Q151Mc/K70E; Q151Mc/K70E vs Q151Mc): (0.4) fold
EC50 (HIV-1 Q151Mc/K70R; Human immunodeficiency virus 1, MAGIC-5, Q151Mc/K70R): 16 ± 1.5 µM
Fold increase in EC50 compared to HIV-1 Q151Mc (HIV-1 Q151Mc/K70R; Q151Mc/K70R vs Q151Mc): (0.6) fold
EC50 (HIV-1 K70E; Human immunodeficiency virus 1, MAGIC-5, K70E): 16 ± 2.1 µM
Fold increase in EC50 compared to HIV-1 WT (HIV-1 K70E; K70E vs WT): (11) fold
EC50 (HIV-1 NL4-3 strain (WT); [3]): 1.4 ± 0.15 µM

Cc1cn([C@H]2C[C@H](N=[N+]=[N-])[C@@H](CO)O2)c(=O)[nH]c1=O [AZT, zidovudine]
EC50 (HIV-1 NL4-3 strain (WT); [4]): 0.023 ± 0.002 µM

O=C1Nc2ccc(Cl)cc2[C@@](C#CC2CC2)(C(F)(F)F)O1 [EFV, efavirenz]
EC50 [1]: > 1 µM
EC50 [2]: > 1 µM
EC50 (HIV-1 NL4-3 strain (WT); [3]): 0.002 ± 0.0001 µM

Nc1nc(=O)n([C@@H]2CS[C@H](CO)O2)cc1F [FTC, emtricitabine]
EC50 [1]: 3.5 ± 0.12 µM
EC50 [2]: 2.1 ± 0.17 µM
EC50 (HIV-1 NL4-3 strain (WT); [4]): 0.4 ± 0.03 µM
